This note sets out measurements from PMC8617976, “Inhibitory Potential of New Phenolic Hydrazide-Hydrazones with a Decoy Substrate Fragment towards Laccase from a Phytopathogenic Fungus: SAR and Molecular Docking Studies” (International Journal of Molecular Sciences, 2021).

Some results are limits rather than exact numbers.

For assay [1], the target named is T1, laccase from Trametes versicolor.
T1 construct: gene LCC2; PDB 1GYC (laccase 2) used for docking only
Nature of the assay: syringaldazine oxidation at […] nm, Lineweaver-Burk. Particulars: McIlvaine buffer pH 5.3, 25 °C, 30 min preincubation, methanol co-solvent. Format: biochemical.

The target is the same in assay [2]. Nature of the assay: syringaldazine oxidation at […] nm, Lineweaver-Burk. Type of assay: biochemical. Particulars: McIlvaine buffer pH 5.3, 25 °C, 30 min preincubation, methanol co-solvent, printed as not active up to 1000 µM, type not determined.
[3] abbreviates: mixed type, non-competitive component.

As for `CC(C)(C)c1cc(/C=N/NC(=O)c2cc(O)cc(O)c2)c(O)c(C(C)(C)C)c1` [4i, 3,5-Dihydroxy-N’-[(E)-(3,5-di-tert-butyl-2-hydroxyphenyl)methylidene]benzohydrazide], affinity in assay [1] (competitive) was put at a Ki of 55.6 µM.

Regarding `COc1cccc(C(=O)N/N=C/c2cc(C)cc(C(C)(C)C)c2O)c1` [4c, 3-Methoxy-N’-[(E)-(3-tert-butyl-2-hydroxy-5-methylphenyl)methylidene]benzohydrazide], the affinity in assay [1] (non-competitive), expressed as Ki, was 17.4 µM.

As for `O=C(N/N=C/c1cccc(-c2ccccc2)c1O)c1cccc(O)c1` [4n, 3-Hydroxy-N’-[(E)-(2-hydroxy-3-phenyl-phenyl)methylidene]benzohydrazide], in assay [1] (setting [3]), the affinity corresponds to a Ki of 139 µM.

For `CC(C)(C)c1cccc(/C=N/NC(=O)c2cc(O)cc(O)c2)c1O` [4l, 3,5-Dihydroxy-N’-[(E)-(3-tert-butyl-2-hydroxyphenyl)methylidene]benzohydrazide], the Ki (in general, the dissociation constant of the complex between target and ligand, obtained from inhibition or displacement) in assay [1] (competitive) came out at 38 µM.

In turn, `CC(=O)NN=Cc1cc(C)cc(C(C)(C)C)c1O` (mixture of isomers) [3a, (E/Z)-N’-(3-tert-butyl-2-hydroxy-5-methyl-benzylidene)acetohydrazide] yielded a KI in assay [2] of more than 1000 µM.

In the case of `Cc1cc(/C=N/NC(=O)c2ccccc2)c(O)c(C(C)(C)C)c1` [4b, N’-[(E)-(3-tert-butyl-2-hydroxy-5-methylphenyl)methylidene]benzohydrazide], in assay [1] (competitive), the Ki came out at 82 µM.

Compound `Cc1cc(/C=N/NC(=O)c2ccccc2O)c(O)c(C(C)(C)C)c1` [4e, 2-Hydroxy-N’-[(E)-(3-tert-butyl-2-hydroxy-5-methylphenyl)methylidene]benzohydrazide] came in with a Ki in assay [1] (uncompetitive) of 150 µM.

With `Cc1cc(/C=N/NC(=O)c2cc(O)cc(O)c2)c(O)c(C(C)(C)C)c1` [4f, 3,5-Dihydroxy-N’-[(E)-(3-tert-butyl-2-hydroxy-5-methylphenyl)methylidene]benzohydrazide], the Ki in assay [1] (competitive) was determined as 32.3 µM.

In turn, `CC(C)(C)c1cccc(/C=N/NC(=O)c2ccc3ccccc3c2O)c1O` [5d, N’-[(E)-(3-tert-butyl-2-hydroxy-phenyl)methylidene]-2-(1-hydroxynaphtho)hydrazide] yielded a Ki in assay [1] (setting [3]) of 55.6 µM.

As for `Cc1cc(/C=N/NC(=O)c2ccc3ccccc3c2O)c(O)c(C(C)(C)C)c1` [5a, N’-[(E)-(3-tert-butyl-2-hydroxy-5-methylphenyl)methylidene]-2-(1-hydroxynaphtho)hydrazide], the inhibition constant (Ki) in assay [1] (setting [3]) was determined as 8 µM.

Regarding `COc1ccc(C(=O)N/N=C/c2cc(C)cc(C(C)(C)C)c2O)cc1` [4d, 4-Methoxy-N’-[(E)-(3-tert-butyl-2-hydroxy-5-methylphenyl)methylidene]benzohydrazide], the affinity in assay [1] (competitive) corresponds to a Ki of 25.8 µM.

In assay [1] (uncompetitive, text b18 prints 49.1), `Cc1cc(/C=N/NC(=O)Cc2ccc(O)cc2)c(O)c(C(C)(C)C)c1` [3b, 2-(4-Hydroxyphenyl)-N’-[(E)-(3-tert-butyl-2-hydroxy-5-methylphenyl)methylidene]acetohydrazide] registered a Ki of 49.2 µM.

Take `CC(C)(C)c1cccc(/C=N/NC(=O)c2ccccc2O)c1O` [4j, 2-Hydroxy-N’-[(E)-(3-tert-butyl-2-hydroxyphenyl)methylidene]benzohydrazide]: the Ki in assay [1] (uncompetitive) came to 65.6 µM.

Turning to `CC(C)(C)c1cc(/C=N/NC(=O)c2cccc(O)c2)c(O)c(C(C)(C)C)c1` [4h, 3-Hydroxy-N’-[(E)-(3,5-di-tert-butyl-2-hydroxyphenyl)methylidene]benzohydrazide], the Ki in assay [1] (competitive) came out at 18.9 µM.

On to `CC(C)(C)c1cccc(/C=N/NC(=O)c2cccc(O)c2)c1O` [4k, 3-Hydroxy-N’-[(E)-(3-tert-butyl-2-hydroxyphenyl)methylidene]benzohydrazide], for which the Ki in assay [1] (competitive) came to 35.8 µM.

With `O=C(N/N=C/c1cccc(-c2ccccc2)c1O)c1cc(O)cc(O)c1` [4o, 3,5-Dihydroxy-N’-[(E)-(2-hydroxy-3-phenyl-phenyl)methylidene]benzohydrazide], affinity in assay [1] (non-competitive) was put at a Ki of 69.9 µM.

As for `CC(C)(C)c1cc(/C=N/NC(=O)c2ccc3ccccc3c2O)c(O)c(C(C)(C)C)c1` [5c, N’-[(E)-(3,5-di-tert-butyl-2-hydroxy-phenyl)methylidene]-2-(1-hydroxynaphtho)hydrazide monomethanolate], the Ki in assay [1] (non-competitive) is 16.2 µM.

In assay [1] (non-competitive), `CC(C)(C)c1cc(/C=N/NC(=O)c2ccccc2O)c(O)c(C(C)(C)C)c1` [4g, 2-Hydroxy-N’-[(E)-(3,5-di-tert-butyl-2-hydroxyphenyl)methylidene]benzohydrazide] displayed a Ki of 52.6 µM.

As for `O=C(N/N=C/c1cccc(-c2ccccc2)c1O)c1ccccc1O` [4m, 2-Hydroxy-N’-[(E)-(2-hydroxy-3-phenyl-phenyl)methylidene]benzohydrazide], in assay [1] (mixed type, competitive component), the Ki came to 26.4 µM.

In assay [1] (setting [3]), `O=C(N/N=C/c1cccc(-c2ccccc2)c1O)c1ccc2ccccc2c1O` [5b, N’-[(E)-(2-hydroxy-3-phenylphenyl)methylidene]-2-(1-hydroxynaphtho)hydrazide] gave a Ki of 24.3 µM.
